Data on 26 compounds can be found in patent US11866438B2, “Compositions, uses and methods for making them” (Pimera, Inc., priority 2015, dated 2024).

Common to all, as to type: cell-based
For assay [1], the system named is MBA-MB-231. Briefly: Alamar Blue cell proliferation inhibition, MBA-MB-231 (MM231). The conditions noted are these: Alamar Blue assay, 96 h incubation. On the procedure:
(§1) Inhibitory activity on cell proliferation of representative compounds of the invention was determined using an Alamar Blue cell viability assay as described hereafter.
(§2) 3000 cancer cells in 100 uL of cell culture media were plated in each well of a 96-well clear bottom, black wall cell culture-pretreated plate.
(§3) The next day compounds are serially diluted (3-fold in cell culture media) across a 96-well polypropylene mother plate from row A to row F, to yield 6 concentrations (10 uM, 3.3 uM, 1.1 uM, 370 nM, 124 nM and 41 nM) for each test compound. Rows G and H contain only DMSO.
(§4) Once titrations are made, the media in plates with cells were disposed and 100 μL of drug dilutions are transferred to plates with cells. After a ninety six-hour incubation at 37° C., 10 uL of resazurin solution from Alamar Blue Cell Viability kit (Invitrogen, Carlsbad, CA) was added to the media and cells were incubated at 37° C. for three more hours. At the end of this incubation the production of resofurin was measured using Spectrmax M2 microplate reader (Molecular Devices, Sunnyvale, CA)

Assay [2] concerns SK-BR-3. Briefly: Alamar Blue cell proliferation inhibition, SK-BR-3. Conditions: Homo sapiens, Alamar Blue assay, 96 h incubation. On the procedure: as §1, §2, §3, §4
The subject of assay [3] is SKM-1_1. Briefly: Alamar Blue cell proliferation inhibition, SKM-1_1. The conditions noted are these: Alamar Blue assay, 96 h incubation, Table 3; read-out: cell proliferation inhibition, Cell line SKM-1_1. On the procedure: as §1, §2, §3, §4
(The colour change of resazurin is a common sign of viable cells or microbes.)

The test system of assay [4] is ML-2. Nature of the assay: Alamar Blue cell proliferation inhibition, ML-2. The conditions noted are these: Homo sapiens, Alamar Blue assay, 96 h incubation, Table 3, read-out: cell proliferation inhibition, Cell line ML-2. On the procedure: as §1, §2, §3, §4
For assay [5], the system named is P12-ICHIKAWA
Briefly: Alamar Blue cell proliferation inhibition, P12-ICHIKAWA
Conditions: Homo sapiens, Alamar Blue assay, 96 h incubation, Table 3, read-out: cell proliferation inhibition, Cell line P12-ICHIKAWA
On the procedure:
as §1, §2, §3, §4

The subject of assay [6] is KG-1. Briefly: Alamar Blue cell proliferation inhibition, KG-1. Conditions: Homo sapiens, Alamar Blue assay, 96 h incubation, Table 3, read-out: cell proliferation inhibition, Cell line KG-1. On the procedure:
as §1, §2, §3, §4

Assay [7] concerns NB-4-1. Nature of the assay: Alamar Blue cell proliferation inhibition, NB-4-1. The conditions noted are these: Alamar Blue assay, 96 h incubation, Table 3; read-out: cell proliferation inhibition, Cell line NB-4-1. On the procedure: as §1, §2, §3, §4
The subject of assay [8] is THP-1. Nature of the assay: Alamar Blue cell proliferation inhibition, THP-1. The conditions noted are these: Homo sapiens, Alamar Blue assay, 96 h incubation, Table 3, read-out: cell proliferation inhibition, Cell line THP-1. On the procedure:
as §1, §2, §3, §4

[9] abbreviates: Table 2, read-out: cell proliferation inhibition, Cell Line MBA-MB-231.
Setting [10] is: Table 2, read-out: cell proliferation inhibition, Cell Line SK-BR-3.
Setting [11] is: Table 3, read-out: cell proliferation inhibition, Cell line SK-BR-3.
Where [12] appears, read: Table 3, read-out: cell proliferation inhibition, Cell line MM231.

Molecules are shown by their SMILES. Where two headings read alike, the source gives them in different places.

Regarding `CN1CCCN(C(=O)c2cc3cc4cc(Cl)ccc4nc3n3ccnc23)CC1` [Compound 60], the IC50 in assay [1] (setting [9]) and in assay [2] (setting [10]) was over 10 µM in each case.
For `CN(C)CCNc1nc2nccnc2n2c1nc1ccccc12` [Compound 34], the IC50 in assay [1] (setting [9]) and in assay [2] (setting [10]) was 1 to 5 µM throughout.
With `CN(C)CCNc1nc2cccnc2n2c1nc1ccccc12` [Compound 5], the IC50 in assay [3], in assay [4], in assay [5], in assay [6], in assay [7] and in assay [8] was 1 to 5 µM in each case.
On to `CN1CCCN(c2ccc3[nH]c(=O)c4nc5ccccc5n4c3n2)CC1` [Compound 41, 2-(4-Methyl-[1,4]diazepan-1-yl)-5H-1,5,7,11b-tetraaza-benzo[c]fluoren-6-one], for which, in assay [2] (setting [11]), the IC50 was under 1 µM.
`Cc1ccc2nc(NCCN3CCCC3)c3nc4ccccc4n3c2n1` [Compound 12]: the IC50 in assay [1] (setting [9]) and in assay [2] (setting [10]) was 1 to 5 µM each time.
On to `Cc1ccc2nc(NCCN(C)C)c3nc4ccccc4n3c2n1` [Compound 13], for which the IC50 in assay [1] (setting [9]) and in assay [2] (setting [10]) was 1 to 5 µM each time.
On to `CN(C)CCNC(=O)c1cc2cc3cc(Cl)ccc3nc2n2ccnc12` [Compound 61], for which the IC50 in assay [1] (setting [9]) and in assay [2] (setting [10]) was over 10 µM throughout.
For `CN(C)CCNc1nc2cncnc2n2c1nc1ccccc12` [Compound 27], the IC50 in assay [1] (setting [9]) and in assay [2] (setting [10]) was 1 to 5 µM in each case.
Turning to `CN(C)CCNC(=O)c1cc2cc3ccccc3nc2n2ccnc12` [Compound 52], the IC50 in assay [3] is under 1 µM; in assay [4], 1 to 5 µM; in assay [5] it was 1 to 5 µM; in assay [6], 1 to 5 µM; in assay [7], 1 to 5 µM; in assay [8] it was 1 to 5 µM.
As for `O=C(NCCN1CCCC1)c1cc2cc3cc(Cl)ccc3nc2n2ccnc12` [Compound 62], the IC50 in assay [1] (setting [9]) and in assay [2] (setting [10]) was over 10 µM each time.
In the case of `CN(C)CCNc1nc2cc(Cl)cnc2n2c1nc1ccccc12` [Compound 20], the IC50 in assay [1] (setting [9]) and in assay [2] (setting [10]) was 1 to 5 µM in each case.
As for `Clc1cnc2c(c1)nc(NCCN1CCCC1)c1nc3ccccc3n12` [Compound 19], the IC50 in assay [1] (setting [9]) and in assay [2] (setting [10]) was 1 to 5 µM in each case.
As to `C[C@@H]1CN(c2nc3nccnc3n3c2nc2ccccc23)C[C@H](C)N1` [Compound 35], the IC50 in assay [1] (setting [9]) and in assay [2] (setting [10]) was 1 to 5 µM in each case.
In the case of `Cc1ccc2nc(N3C[C@@H](C)N[C@@H](C)C3)c3nc4ccccc4n3c2n1` [Compound 14], the IC50 in assay [1] (setting [9]) and in assay [2] (setting [10]) was 1 to 5 µM throughout.
As for `CN1CCCN(c2nc3cc(Cl)cnc3n3c2nc2ccccc23)CC1` [Compound 22], the IC50 is 5 to 10 µM in assay [1] (setting [9]) and 1 to 5 µM in assay [2] (setting [10]).
For `CN1CCCN(c2nc3nccnc3n3c2nc2ccccc23)CC1` [Compound 36], the IC50 in assay [1] (setting [9]) and in assay [2] (setting [10]) was 1 to 5 µM each time.
For `COc1ccc2nc3c(cc(C(=O)N4CCCN(C)CC4)c4nccn43)cc2c1` [Compound 56], the IC50 in assay [1] (setting [9]) and in assay [2] (setting [10]) was over 10 µM throughout.
As for `COc1ccc2nc3c(cc(C(=O)NCCN(C)C)c4nccn43)cc2c1` [Compound 57], the IC50 in assay [1] (setting [9]) and in assay [2] (setting [10]) was 1 to 5 µM in each case.
On to `CN1CCCN(c2nc3cncnc3n3c2nc2ccccc23)CC1` [Compound 29], for which the IC50 in assay [1] (setting [9]) and in assay [2] (setting [10]) was 1 to 5 µM in each case.
As for `CN1CCCN(C(=O)c2cc3cc4ccccc4nc3n3ccnc23)CC1` [Compound 55], the IC50 in assay [1] (setting [12]) and in assay [2] (setting [11]) was over 10 µM throughout.
For the compound `C[C@@H]1CN(c2nc3cncnc3n3c2nc2ccccc23)C[C@H](C)N1` [Compound 28], the IC50 in assay [1] (setting [9]) and in assay [2] (setting [10]) was 1 to 5 µM throughout.
In the case of `O=c1[nH]c2ccc(NCCN3CCCC3)nc2n2c1nc1ccccc12` [Compound 39], the IC50 in assay [1] (setting [12]) and in assay [2] (setting [11]) was 1 to 5 µM throughout.
On to `c1ccc2c(c1)nc1c(NCCN3CCCC3)nc3cncnc3n12` [Compound 26], for which the IC50 in assay [1] (setting [9]) and in assay [2] (setting [10]) was 1 to 5 µM in each case.
In the case of `C[C@@H]1CN(C(=O)c2cc3cc4cc(Cl)ccc4nc3n3ccnc23)C[C@H](C)N1` [Compound 63], the IC50 in assay [1] (setting [9]) and in assay [2] (setting [10]) was over 10 µM throughout.
As to `C[C@@H]1CN(c2nc3cc(Cl)cnc3n3c2nc2ccccc23)C[C@H](C)N1` [Compound 21], the IC50 in assay [1] (setting [9]) and in assay [2] (setting [10]) was over 10 µM in each case.
For the compound `Cc1ccc2nc(N3CCCN(C)CC3)c3nc4ccccc4n3c2n1` [Compound 15], the IC50 in assay [1] (setting [9]) and in assay [2] (setting [10]) was 1 to 5 µM throughout.
